In paper PMC7112848 (Journal of Virological Methods, 2008):

Molecular target: rgH1N1 NA (Influenza A virus, UniProt Q6DPL2)
Format: biochemical, reverse-genetic influenza A virus rgH1N1

Chain of rgH1N1 NA (Q6DPL2 whole entry, looked up): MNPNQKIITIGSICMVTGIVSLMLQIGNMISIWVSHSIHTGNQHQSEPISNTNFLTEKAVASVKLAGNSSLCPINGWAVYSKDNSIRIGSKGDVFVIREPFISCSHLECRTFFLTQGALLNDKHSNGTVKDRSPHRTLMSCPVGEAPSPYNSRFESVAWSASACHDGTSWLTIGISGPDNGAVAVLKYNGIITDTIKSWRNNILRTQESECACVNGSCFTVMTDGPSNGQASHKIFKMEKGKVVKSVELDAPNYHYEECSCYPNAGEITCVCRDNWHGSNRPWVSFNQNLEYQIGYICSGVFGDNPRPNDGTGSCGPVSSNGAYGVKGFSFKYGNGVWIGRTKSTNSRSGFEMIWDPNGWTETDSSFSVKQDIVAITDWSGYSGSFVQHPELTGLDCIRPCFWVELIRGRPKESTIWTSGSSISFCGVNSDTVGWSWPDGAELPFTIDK

Molecule `CC(=O)N[C@@H]1[C@@H](O)C[C@](Oc2ccc3c(C)cc(=O)oc3c2)(C(=O)O)O[C@H]1C(O)[C@H](O)CO` (stereo partly drawn) [MUNANA, 2′-(4-methylumbelliferyl)-α-D-N-acetylneuraminic acid] has a Km of 18 ± 2 µM.
